Assay results from patent US6642386B2, “N-(4-carbamimidoyl-phenyl)-glycine derivatives” (Hoffmann-La Roche Inc., priority 2002, dated 2003).
Values after ≈ are worked out from the molar mass of the structure shown. Like-named read-outs stand apart in the source and are kept apart here.

Columns and labels:
human plasma = assay: prothrombin time (PT) clotting test; type: biochemical; conditions: inhibitor concentration which brought about a doubling of the PT clotting time, Innovin (recombinant human tissue factor)
Experimental: The activity of the low molecular weight substances can, moreover, be characterized in the “prothrombi” time” (PT) clotting test. The substances are prepared as a 10 mM solution in DMSO or DMSO/0.1M HCl (DHCl) and thereafter made up to the desired dilution in the same solvent. Thereafter, 0.25 ml of human plasma (obtained from whole blood anticoagulated with 1/10 volume of 108 mM Na citrate) was placed in the instrument-specific sample container. In each case 5 μl of each dilution of the substance-dilution series was then mixed with the plasma provided. This plasma/inhibitor mixture was incubated at 37° C. for 2 minutes. Thereafter, there were pipetted to the semi-automatic device (ACL, Automated Coagulation Laboratory (Instrument Laboratory)) 50 μl of plasma/inhibitor mixture in the measurement container. The clotting reaction was initiated by the addition of 0.1 ml of Innovin® (recombinant human tissue factor combined with calcium buffer and synthetic phospholipids(Dade Behring®, Inc.). The time up to the fibrin cross-linking was determined photooptically from the ACL. The inhibitor concentration, which brought about a doubling of the PT clotting time, was determined by means of a graph.

[1] = Solubility (phosphate buffer); type: physicochemical

| SMILES | concentration doubling PT clotting time (human plasma) | Solubility (phosphate buffer, pH 6.5) ([1]; pH 6.5) | melting point | solubility ([1]; aqueous buffer, pH 5 (stated in the cell), read-out: Solubility (phosphate buffer, pH 5)) | solubility ([1]; pH 6.5, aqueous buffer, read-out: Solubility (phosphate buffer, pH 6.5)) |
| --- | --- | --- | --- | --- | --- |
| CCOc1cc(O[C@@H]2CCCN(C)C2)c(F)c([C@@H](Nc2ccc(C(=N)N)cc2)C(=O)O)c1 (racemic) [Example 2.3, (RS)- and (SR)-(4-carbamimidoyl-phenylamino)-[5-ethoxy-2-fluoro-3-[(RS)-1-methyl-piperidin-3-yloxy]-phenyl]-acetic acid] | 2.1 µM | 2.2 mg/ml |  |  |  |
| CCOc1cc(OCC2CCN(C)CC2)c(F)c(C(Nc2ccc(C(=N)N)cc2)C(=O)O)c1 (racemic) [Example 6.3, (RS)-(4-carbamimidoyl-phenylamino)-[5-ethoxy-2-fluoro-3-(1-methyl-piperidin-4-ylmethoxy)-phenyl]-acetic acid] |  |  | 232 °C |  |  |
| CCOc1cc(OC2CCN(C)CC2)c(F)c(C(Nc2ccc(C(=N)N)cc2)C(=O)O)c1 (racemic) [Example 13.3, (RS)-(4-carbamimidoyl-phenylamino)-[5-ethoxy-2-fluoro-3-(1-methyl-piperidin-4-yloxy)-phenyl]-acetic acid] | 3.6 µM |  |  | 3300 µg/mL (≈ 7.42 mM) |  |
| CCOc1cc(OC2CCN(C)CC2)c(F)c([C@@H](Nc2ccc(C(=N)N)cc2)C(=O)O)c1 [Example 13.8, (R)-(4-carbamimidoyl-phenylamino)-[5-ethoxy-2-fluoro-3-(1-methyl-piperidin-4-yloxy)-phenyl]-acetic acid] | 1.6 µM |  |  |  | 5700 µg/mL (≈ 12.8 mM) |
